In article PMC2865140 (Microbiology (Reading, England), 2009):

Tests used:
[1] = target: AccD5 (carboxyltransferase beta subunit of ACCase 5) (Mycobacterium tuberculosis, UniProt P9WQH7); format: biochemical
[2] = target: T1, AccD6 (carboxyltransferase beta subunit of ACCase 6) (Mycobacterium tuberculosis, UniProt P9WQH5); format: biochemical
T1 sequence (P9WQH5 1-473): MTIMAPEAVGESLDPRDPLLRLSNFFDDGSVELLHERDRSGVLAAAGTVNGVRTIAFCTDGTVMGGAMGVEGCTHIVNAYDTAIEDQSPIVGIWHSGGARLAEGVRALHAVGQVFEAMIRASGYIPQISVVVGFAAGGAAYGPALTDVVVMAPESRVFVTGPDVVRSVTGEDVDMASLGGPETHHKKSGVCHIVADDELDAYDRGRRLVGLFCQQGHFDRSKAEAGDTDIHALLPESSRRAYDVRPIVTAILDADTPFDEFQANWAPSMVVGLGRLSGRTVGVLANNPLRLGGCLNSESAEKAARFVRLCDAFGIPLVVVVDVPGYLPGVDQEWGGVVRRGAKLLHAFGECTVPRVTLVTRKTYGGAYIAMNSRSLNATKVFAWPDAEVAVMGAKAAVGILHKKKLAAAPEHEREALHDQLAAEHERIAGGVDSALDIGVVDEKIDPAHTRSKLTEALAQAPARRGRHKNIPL
T1 sequence (P9WPQ3 1-654 partner): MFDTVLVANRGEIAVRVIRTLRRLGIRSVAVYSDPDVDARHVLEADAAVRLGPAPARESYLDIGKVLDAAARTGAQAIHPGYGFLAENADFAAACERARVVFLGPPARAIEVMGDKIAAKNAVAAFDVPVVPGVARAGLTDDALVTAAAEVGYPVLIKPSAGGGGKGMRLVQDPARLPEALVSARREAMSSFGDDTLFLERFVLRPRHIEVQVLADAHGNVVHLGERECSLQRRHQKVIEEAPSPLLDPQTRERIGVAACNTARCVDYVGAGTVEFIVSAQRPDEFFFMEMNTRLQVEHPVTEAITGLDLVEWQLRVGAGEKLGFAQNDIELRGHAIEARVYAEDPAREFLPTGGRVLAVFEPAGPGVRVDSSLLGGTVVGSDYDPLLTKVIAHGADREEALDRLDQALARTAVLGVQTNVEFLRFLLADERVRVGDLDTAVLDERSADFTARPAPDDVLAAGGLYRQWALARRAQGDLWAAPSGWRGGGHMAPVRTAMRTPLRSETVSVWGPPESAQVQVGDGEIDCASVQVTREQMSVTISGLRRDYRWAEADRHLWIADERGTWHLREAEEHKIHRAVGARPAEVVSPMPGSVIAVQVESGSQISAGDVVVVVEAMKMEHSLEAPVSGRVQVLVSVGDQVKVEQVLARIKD

AccD5 (carboxyltransferase beta subunit of ACCase 5), sequence (P96890 2-600): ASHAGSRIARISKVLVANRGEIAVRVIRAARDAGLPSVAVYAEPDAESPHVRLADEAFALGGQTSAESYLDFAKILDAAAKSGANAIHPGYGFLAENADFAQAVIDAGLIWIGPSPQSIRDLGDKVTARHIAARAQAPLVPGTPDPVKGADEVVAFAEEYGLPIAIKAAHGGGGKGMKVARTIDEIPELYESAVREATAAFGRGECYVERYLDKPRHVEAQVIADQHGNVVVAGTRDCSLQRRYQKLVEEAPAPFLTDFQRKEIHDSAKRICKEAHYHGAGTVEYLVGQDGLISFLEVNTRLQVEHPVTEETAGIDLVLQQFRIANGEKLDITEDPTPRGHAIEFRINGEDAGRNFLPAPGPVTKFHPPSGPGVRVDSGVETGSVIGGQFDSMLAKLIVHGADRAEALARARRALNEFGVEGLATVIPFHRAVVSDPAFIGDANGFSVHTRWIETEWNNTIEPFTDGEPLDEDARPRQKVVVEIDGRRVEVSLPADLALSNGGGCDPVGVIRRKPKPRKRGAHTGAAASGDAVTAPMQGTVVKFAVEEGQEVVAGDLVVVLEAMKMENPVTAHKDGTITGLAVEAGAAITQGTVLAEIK
AccD5 (carboxyltransferase beta subunit of ACCase 5), sequence (P96886 whole entry, further chain): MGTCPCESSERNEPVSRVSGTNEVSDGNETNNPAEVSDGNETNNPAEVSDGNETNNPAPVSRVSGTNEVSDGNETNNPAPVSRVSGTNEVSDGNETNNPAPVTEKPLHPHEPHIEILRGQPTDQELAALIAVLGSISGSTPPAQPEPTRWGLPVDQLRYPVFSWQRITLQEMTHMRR
AccD5 (carboxyltransferase beta subunit of ACCase 5), sequence (P9WQH7 whole entry): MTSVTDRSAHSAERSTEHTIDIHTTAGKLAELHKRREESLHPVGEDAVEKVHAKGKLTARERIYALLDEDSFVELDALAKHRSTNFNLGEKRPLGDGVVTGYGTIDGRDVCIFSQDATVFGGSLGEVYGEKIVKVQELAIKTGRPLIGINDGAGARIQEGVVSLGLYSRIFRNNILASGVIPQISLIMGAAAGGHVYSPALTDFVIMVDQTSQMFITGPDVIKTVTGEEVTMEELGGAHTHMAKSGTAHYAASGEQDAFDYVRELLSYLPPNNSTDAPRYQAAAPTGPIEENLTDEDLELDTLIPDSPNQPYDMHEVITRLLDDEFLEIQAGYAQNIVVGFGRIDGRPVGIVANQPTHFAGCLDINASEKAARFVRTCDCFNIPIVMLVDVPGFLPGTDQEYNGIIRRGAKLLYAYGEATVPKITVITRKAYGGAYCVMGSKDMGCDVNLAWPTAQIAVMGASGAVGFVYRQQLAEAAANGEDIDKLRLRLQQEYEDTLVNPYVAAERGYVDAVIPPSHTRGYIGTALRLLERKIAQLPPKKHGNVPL

SMILES: Oc1c(Cl)cc(C(c2cc(Cl)c(O)c(Cl)c2)C(c2cc(Cl)c(O)c(Cl)c2)c2cc(Cl)c(O)c(Cl)c2)cc1Cl [NCI-172033]
- IC50 [1]: 78 µM
- IC50 [2]: ~8 µM
